According to ChEMBL document CHEMBL5252585, “Structure optimization and discovery of novel compound for the treatment of insertion mutations within exon 20 of EGFR and HER2” (Bioorg Med Chem, 2023):

Tests used:
[1] = Mean residence time in Sprague-Dawley rat at 10 mg/kg, po measured upto 8 hrs by LC-MS/MS analysis; type: ADME, organism-based; details: in vivo
[2] = target: T1, Ephrin type-A receptor 3 (Homo sapiens) (UniProt P29320); test: Inhibition of EPHA3 (unknown origin) at 500 nM relative to control
T1 sequence (whole entry): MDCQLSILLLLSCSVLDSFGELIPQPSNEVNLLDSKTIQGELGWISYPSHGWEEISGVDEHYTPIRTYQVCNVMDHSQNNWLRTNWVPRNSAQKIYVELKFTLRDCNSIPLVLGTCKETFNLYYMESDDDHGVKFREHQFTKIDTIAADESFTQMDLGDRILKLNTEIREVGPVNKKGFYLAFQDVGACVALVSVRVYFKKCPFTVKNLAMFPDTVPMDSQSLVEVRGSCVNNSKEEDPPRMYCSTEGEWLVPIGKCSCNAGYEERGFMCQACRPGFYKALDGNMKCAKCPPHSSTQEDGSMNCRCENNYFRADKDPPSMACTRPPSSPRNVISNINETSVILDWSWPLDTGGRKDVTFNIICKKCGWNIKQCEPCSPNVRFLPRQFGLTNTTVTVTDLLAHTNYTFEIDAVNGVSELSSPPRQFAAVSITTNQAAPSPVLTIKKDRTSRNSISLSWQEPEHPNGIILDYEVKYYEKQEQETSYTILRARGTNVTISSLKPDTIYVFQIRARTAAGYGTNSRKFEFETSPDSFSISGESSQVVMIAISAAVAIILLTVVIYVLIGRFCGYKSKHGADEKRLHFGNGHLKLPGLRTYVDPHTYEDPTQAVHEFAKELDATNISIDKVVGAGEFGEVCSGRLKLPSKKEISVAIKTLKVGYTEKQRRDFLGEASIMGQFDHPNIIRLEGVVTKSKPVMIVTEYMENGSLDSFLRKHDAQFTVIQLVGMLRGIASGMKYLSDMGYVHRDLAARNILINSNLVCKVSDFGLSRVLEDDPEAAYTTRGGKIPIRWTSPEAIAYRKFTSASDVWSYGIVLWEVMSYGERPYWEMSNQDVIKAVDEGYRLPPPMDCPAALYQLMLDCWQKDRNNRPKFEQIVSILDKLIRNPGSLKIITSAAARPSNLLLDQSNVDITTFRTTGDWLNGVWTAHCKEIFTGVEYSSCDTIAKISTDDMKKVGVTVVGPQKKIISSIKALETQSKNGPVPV

[3] = Cmax in Sprague-Dawley rat at 10 mg/kg, po measured upto 8 hrs by LC-MS/MS analysis; type: ADME, organism-based; parameters: dose 10 mg/kg, time < 8 hrs, route po; details: in vivo
[4] = tested on: BaF3; test: Antiproliferative activity against mouse BAF3 cells harboring FL-EGFR D770-N771 ins NPG mutant after 72 hrs by celltiter-Glo luminescence assay; type: functional, cell-based; details: BaF3, 72 h
[5] = tested on: BaF3; test: Antitumor activity against mouse BaF3 cells implanted in BALB/c mouse harboring HER2-A775-G776 ins YVMA mutant assessed as tumor growth inhibition at 20 mg/kg, po administered once daily for 13 to 14 days; type: functional; details: time 13-14 day, read-out: TGI
[6] = target: T2, Ephrin type-A receptor 6 (Homo sapiens) (UniProt Q9UF33); test: Inhibition of EPHA6 (unknown origin) at 500 nM relative to control
T2 sequence (whole entry): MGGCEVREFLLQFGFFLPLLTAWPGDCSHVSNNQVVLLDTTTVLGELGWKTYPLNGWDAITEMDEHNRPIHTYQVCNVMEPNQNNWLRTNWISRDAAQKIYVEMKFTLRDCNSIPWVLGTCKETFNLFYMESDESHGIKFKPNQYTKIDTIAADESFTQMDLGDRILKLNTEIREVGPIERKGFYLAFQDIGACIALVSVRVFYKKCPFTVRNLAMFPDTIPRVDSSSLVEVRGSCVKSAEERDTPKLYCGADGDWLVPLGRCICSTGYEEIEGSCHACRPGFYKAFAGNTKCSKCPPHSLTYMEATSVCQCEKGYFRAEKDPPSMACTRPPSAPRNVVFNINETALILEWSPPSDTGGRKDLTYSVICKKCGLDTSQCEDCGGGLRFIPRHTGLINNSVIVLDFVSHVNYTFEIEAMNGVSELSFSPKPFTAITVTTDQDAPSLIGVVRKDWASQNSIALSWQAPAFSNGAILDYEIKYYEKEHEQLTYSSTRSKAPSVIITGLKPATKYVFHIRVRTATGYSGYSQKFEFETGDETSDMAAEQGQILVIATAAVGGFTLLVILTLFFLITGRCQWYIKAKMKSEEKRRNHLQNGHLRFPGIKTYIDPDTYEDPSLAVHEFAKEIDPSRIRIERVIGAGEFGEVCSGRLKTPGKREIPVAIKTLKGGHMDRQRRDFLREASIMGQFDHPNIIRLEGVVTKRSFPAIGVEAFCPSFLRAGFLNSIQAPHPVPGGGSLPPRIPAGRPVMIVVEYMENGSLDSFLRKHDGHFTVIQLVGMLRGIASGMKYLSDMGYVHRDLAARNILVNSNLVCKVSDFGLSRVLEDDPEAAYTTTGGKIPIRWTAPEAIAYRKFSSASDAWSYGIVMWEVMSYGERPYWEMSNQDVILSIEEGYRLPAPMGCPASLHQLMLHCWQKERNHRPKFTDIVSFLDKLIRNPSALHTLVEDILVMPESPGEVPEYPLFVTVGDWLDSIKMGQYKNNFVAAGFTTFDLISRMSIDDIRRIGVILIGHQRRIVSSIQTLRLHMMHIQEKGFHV

[7] = target: Tyrosine-protein kinase Blk (Homo sapiens) (UniProt P51451); test: Inhibition of BLK (unknown origin) at 500 nM relative to control
Chain of Tyrosine-protein kinase Blk (Homo sapiens) (P51451 2-505 limits assumed): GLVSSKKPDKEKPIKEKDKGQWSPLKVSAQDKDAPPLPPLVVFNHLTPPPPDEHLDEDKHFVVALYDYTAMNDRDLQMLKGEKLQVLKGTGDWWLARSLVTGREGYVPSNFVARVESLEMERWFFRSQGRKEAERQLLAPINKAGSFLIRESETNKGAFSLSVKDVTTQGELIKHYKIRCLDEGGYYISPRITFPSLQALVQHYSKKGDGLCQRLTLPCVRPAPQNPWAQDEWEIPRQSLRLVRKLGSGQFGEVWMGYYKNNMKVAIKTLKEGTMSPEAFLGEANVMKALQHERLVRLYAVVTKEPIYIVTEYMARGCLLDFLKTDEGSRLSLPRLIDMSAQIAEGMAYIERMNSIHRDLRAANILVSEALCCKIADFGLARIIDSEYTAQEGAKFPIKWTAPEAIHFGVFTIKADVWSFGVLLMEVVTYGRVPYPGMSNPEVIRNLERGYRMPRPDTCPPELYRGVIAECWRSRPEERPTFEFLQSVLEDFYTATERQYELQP

[8] = target: Receptor tyrosine-protein kinase erbB-4 (Homo sapiens) (UniProt Q15303); details: dose 500.0 nM
Chain of Receptor tyrosine-protein kinase erbB-4 (Homo sapiens) (Q15303 whole entry): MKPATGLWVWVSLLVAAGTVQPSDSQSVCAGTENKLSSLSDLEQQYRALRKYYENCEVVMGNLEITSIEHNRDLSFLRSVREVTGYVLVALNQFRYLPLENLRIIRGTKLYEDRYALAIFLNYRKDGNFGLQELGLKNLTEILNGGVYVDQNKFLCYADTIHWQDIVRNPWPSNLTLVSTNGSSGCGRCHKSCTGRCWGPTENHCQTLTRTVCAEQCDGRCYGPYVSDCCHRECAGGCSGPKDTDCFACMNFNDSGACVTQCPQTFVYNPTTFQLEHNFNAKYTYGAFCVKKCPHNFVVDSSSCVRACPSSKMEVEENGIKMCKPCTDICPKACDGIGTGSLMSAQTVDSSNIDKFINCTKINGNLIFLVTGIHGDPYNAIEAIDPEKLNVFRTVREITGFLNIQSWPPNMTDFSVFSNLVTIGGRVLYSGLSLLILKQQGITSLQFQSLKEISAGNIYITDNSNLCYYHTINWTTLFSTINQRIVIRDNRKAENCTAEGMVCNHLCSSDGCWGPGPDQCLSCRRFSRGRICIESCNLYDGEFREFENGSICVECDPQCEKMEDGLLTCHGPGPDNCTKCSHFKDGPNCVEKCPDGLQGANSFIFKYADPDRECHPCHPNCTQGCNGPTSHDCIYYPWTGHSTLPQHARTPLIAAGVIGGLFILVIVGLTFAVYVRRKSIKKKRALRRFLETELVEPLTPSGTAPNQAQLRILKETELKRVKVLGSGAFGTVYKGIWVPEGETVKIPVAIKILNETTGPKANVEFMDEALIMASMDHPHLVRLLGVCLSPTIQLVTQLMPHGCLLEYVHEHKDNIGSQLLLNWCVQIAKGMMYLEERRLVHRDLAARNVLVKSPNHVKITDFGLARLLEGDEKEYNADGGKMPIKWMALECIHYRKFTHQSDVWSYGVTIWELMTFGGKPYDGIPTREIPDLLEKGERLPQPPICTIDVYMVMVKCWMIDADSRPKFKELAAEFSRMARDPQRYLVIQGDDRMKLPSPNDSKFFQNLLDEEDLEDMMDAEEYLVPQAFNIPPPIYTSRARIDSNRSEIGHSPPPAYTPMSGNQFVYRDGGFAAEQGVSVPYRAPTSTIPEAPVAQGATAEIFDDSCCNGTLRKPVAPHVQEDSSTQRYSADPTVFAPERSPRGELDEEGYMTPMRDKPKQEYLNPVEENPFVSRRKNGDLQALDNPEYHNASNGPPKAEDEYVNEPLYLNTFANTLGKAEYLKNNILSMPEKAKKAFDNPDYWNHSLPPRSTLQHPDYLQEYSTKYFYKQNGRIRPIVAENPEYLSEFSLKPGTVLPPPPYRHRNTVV
Description: Inhibition of HER4 (unknown origin) at 500 nM relative to control

[9] = target: Protein-tyrosine kinase 6 (Homo sapiens) (UniProt Q13882); test: Inhibition of BRK (unknown origin) at 500 nM relative to control
Chain of Protein-tyrosine kinase 6 (Homo sapiens) (Q13882 whole entry, looked up): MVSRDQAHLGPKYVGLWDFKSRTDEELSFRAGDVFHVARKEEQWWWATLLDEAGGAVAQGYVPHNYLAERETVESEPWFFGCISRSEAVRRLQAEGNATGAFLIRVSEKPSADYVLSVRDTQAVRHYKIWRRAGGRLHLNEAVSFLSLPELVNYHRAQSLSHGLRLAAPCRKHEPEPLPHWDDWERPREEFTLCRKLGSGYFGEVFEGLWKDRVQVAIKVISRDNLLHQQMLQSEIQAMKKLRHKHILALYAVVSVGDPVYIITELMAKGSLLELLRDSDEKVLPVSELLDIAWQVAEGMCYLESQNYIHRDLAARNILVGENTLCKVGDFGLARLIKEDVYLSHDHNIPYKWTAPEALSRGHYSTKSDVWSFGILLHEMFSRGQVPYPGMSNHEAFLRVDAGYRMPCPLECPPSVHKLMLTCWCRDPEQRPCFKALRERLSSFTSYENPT

[10] = tested on: BaF3; test: Inhibition of EGFR D770-N771 ins NPG mutant in mouse BaF3 cells assessed as reduction in EGFR phosphorylation incubated for 24 hrs by Western blot analysis; type: cell-based; details: dose 1-100 nM
[11] = Half life in Sprague-Dawley rat at 10 mg/kg, iv measured upto 8 hrs by LC-MS/MS analysis; type: ADME, organism-based; details: in vivo

- MRT [1]: 3.58 h
- inhibition [2]: > 20%
- Cmax [3]: 1.69 µg/mL
- IC50 [4]: 0.79 nM
- inhibition [6]: > 20%
- inhibition [7]: > 20%
- inhibition [8]: 100%
- inhibition [9]: > 20%
- half-life [11]: 0.89 h
Structure (SMILES): C=CC(=O)N1CCC(Oc2cc3c(Nc4cccc(Cl)c4F)ncnc3cc2O[C@H]2CCOC2)CC1
- inhibition in vivo at 20 mg/kg [5]: 90%
- inhibition [10]: Dose-Dependent Effect
